The text below walks through data of patent US20170112896A1, “SMALL MOLECULE RAC OR RHO INHIBITORS” (Ohio State Innovation Foundation, priority 2014, published 2017).

SMILES strings stand for the structures. Entries after “also recorded” stand apart in the source; their conditions may differ. Where two headings read alike, the source gives them in different places. Square brackets hold non-standard residues; d marks the D form. Peptide text beside a SMILES is read from it. Phe(4-F) = N[C@@H](Cc1ccc(F)cc1)C(=O)O; d2Nal = N[C@H](Cc1ccc2ccccc2c1)C(=O)O; dNle = CCCC[C@@H](N)C(=O)O

In general, IC50 refers to the concentration needed to halve the response being measured.

Series [1] concerns the target T1, Ras(G12V)-Raf RBD interaction (Homo sapiens, UniProt P01116, G12V).
T1 construct: The G12V mutant K-Ras (amino acids 1-185) was recombinantly fused to glutathione 5-transferase (GST) at its N-terminus; GST (N, cleaved yes); made in house; host or cells: Escherichia coli BL21
Nature of the series: HTRF assay, inhibition of Ras-Raf RBD interaction. The format is binding. To be noted: relative to 9A1. Background: Time-resolved FRET reads energy transfer from a long-lived donor to a nearby acceptor.
Method: Recombinant HA-tagged K-Ras (no GST, 50 nM), GST-Raf RBD (50 nM each), a monoclonal anti-HA antibody labeled with acceptor d2 (2 μg/mL), a monoclonal anti-GST antibody labeled with donor Tb (0.25 μg/mL) (Cisbio), and increasing concentrations of cyclic peptide (0-20 μM) were mixed in PBS (total volume of 20 μL) in a 384-well plate. The plate was incubated overnight at 4° C. and the HTRF signal was measured on a Molecular Devices Spectramax M5 or a Tecan infinite M1000 Pro plate reader. The data were analyzed by Prism 6.0 from Graphpad Software, Inc. (La Jolla, Calif.) and IC50 values were obtained by fitting the data to dose-response-inhibition curve.

Series [2] has as its system Akt, Mek and Erk phosphorylation in H1299 cells. Nature of the series: Western blot of Ras signaling (Akt, Mek, Erk phosphorylation) in H1299 cells. In kind it is cell-based. Conditions: for IC50: 10 min treatment. The source says:
(§1) Two well characterized Ras effector pathways are the Raf-Mek-Erk and PI3K-Akt signaling pathways (Karnoub, A. E. et al. (2008) Nat Rev. Mol. Cell Biol. 9:517). To determine whether the cyclic peptides inhibited the intracellular Ras activity, Applicant monitored the phosphorylation levels of Mek, Erk, and Akt in cells before and after treatment with the Ras inhibitors. […] In order to rule out that the observed downregulation of P-Mek, P-Erk and P-Akt is caused by inhibition of EGFR signaling, the effect of Cyclosrasin 9A5 on the phosphorylation of the EGFR was tested by performing an IP/Western Blot experiment (FIG. 3E). Active, signaling EGFR is highly autohophosphorylated.
(In general: In western blotting, separated proteins are transferred to a membrane and probed.)

In series [3] the test system is Akt, Mek and Erk phosphorylation in H1650 cells. Nature of the series: Western blot of Akt, Mek, Erk phosphorylation in H1650 cells. The format is cell-based. Conditions: 10 μM, 10 min.
Series [4] relates to Rac and Rho signaling (cofilin, Paxilin, FAK, Mek Ser298, c-Raf Ser338) in H1299 cells. Nature of the series: Western blot of effector proteins of Rac and Rho signaling in H1299 cells. The format is cell-based. To be noted: 13 μM.
The test system of series [5] is Akt, Mek and Erk phosphorylation in H1975 cells. Nature of the series: Western blot of Akt, Mek, Erk phosphorylation in H1975 cells. In kind it is cell-based. To be noted: 10 μM, 10 min.
The test system of series [6] is actin filaments in A549 cells. Nature of the series: Actin filament staining (phalloidin-FITC) and cell morphology. The format is cell-based. To be noted: cells exposed to peptide.
Series [7] has as its system Akt, Mek and Erk phosphorylation in A549 cells. Nature of the series: Western blot of Akt, Mek, Erk phosphorylation in A549 cells. To be noted: 10 μM, 10 min. In kind it is cell-based.
In series [8] the test system is EGF receptor phosphorylation. Nature of the series: IP/Western blot of EGFR phosphorylation. To be noted: 13 μM. The format is cell-based.
From the text: as §1

T1 sequence (P01116 1-185 isoform P01116-2 G12V): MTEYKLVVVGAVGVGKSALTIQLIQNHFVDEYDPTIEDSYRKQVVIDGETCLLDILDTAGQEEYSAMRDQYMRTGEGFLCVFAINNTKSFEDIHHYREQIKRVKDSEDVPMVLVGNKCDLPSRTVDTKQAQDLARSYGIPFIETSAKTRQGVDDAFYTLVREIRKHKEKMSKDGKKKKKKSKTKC

Regarding `CCCC[C@H]1NC(=O)[C@H](Cc2ccc(F)cc2)NC(=O)[C@H](CCCNC(=N)N)NC(=O)[C@@H](Cc2ccc3ccccc3c2)NC(=O)[C@H](CCCNC(=N)N)NC(=O)[C@H](CCCNC(=N)N)NC(=O)[C@H](CCCNC(=N)N)NC(=O)[C@@H](C)NC(=O)[C@H]([C@@H](C)O)NC(=O)[C@H](Cc2c[nH]c3ccccc23)NC(=O)[C@H](CCC(N)=O)NC1=O` [Cyclorasin 9A5, (Trp-Thr-ala-Arg-Arg-Arg-nal-Arg-Fpa-nle-Gln)] (cyclo(WT[dA]RRR[d2Nal]R[Phe(4-F)][dNle]Q)), the “higher potency than 9A1 against K-Ras” value in [1] amounted to 3 fold. Moreover, the “basal phosphorylation of Mek and Akt” value in [2] (H1299 cells unstimulated with EGF, 10 μM for 10 min) is “inhibited”. In addition, the “Mek, Erk and Akt phosphorylation” value in series [2] (H1299 cells, 10 μM, 10 min) was “almost completely abolished”; in [3] it was “almost completely abolished; also recorded: can be inhibited”; in [5], “almost completely abolished; also recorded: can be inhibited”; in series [7], “significant Mek and Erk phosphorylation remained”. Further, the “EGF-induced phosphorylation of Akt and Mek” value is listed as “significant reduction” in series [2] (H1299 cells, 13 μM, 5 min) and “completely abolished” in series [2] (H1299 cells, 13 μM, ≧10 min). In series [2] (H1299 cells, 13 μM, time course), the “phosphorylation level of Erk” value is “decreased, but to a lesser extent and at a later time point”. The half-maximal inhibitory concentration (IC50) was about 5 µM in series [2] (H1299 cells, read-out: IC50, inhibition of Akt phosphorylation) and about 5 µM in [2] (H1299 cells, read-out: IC50, inhibition of Mek phosphorylation). Also, the “cell permeability / intracellular fluorescence” value in the series with A549 lung cancer cells is on record as “improved cell permeability”. The “phosphorylation of Paxilin (Tyr118), FAK (Tyr397), Mek (Ser298) and c-Raf (Ser338)” value in series [4] is recorded as “dephosphorylated”. Besides, the phosphorylation of cofilin entry in [4] is recorded as “decreased”. The cell morphology entry in series [6] is on record as “rapid morphological changes”. Further, in series [8], the EGFR phosphorylation level entry was “does no affect; also recorded: no effect”.
